{"source": "patent US4271152A", "about": "“Psycho-pharmacological peptides” (Akzo N.V., priority 1979, dated 1981)", "origin": "cited, not measured here", "key": {"[1]": {"tested_on": "avoidance behaviour of rats", "conditions": "pole-jumping test; for extinction of the (pole-jumping) avoidance behaviour: background knowledge / earlier Dutch application"}, "[2]": {"tested_on": "opiate receptor"}, "[3]": {"conditions": "can be antagonized by naloxon"}}, "note": "Entries after “also recorded” stand apart in the source; their conditions may differ.", "data": [{"substance": "γ-endorphin", "values": [{"measurement": "extinction of the (pole-jumping) avoidance behaviour", "setting": "[1]", "value": "accelerate the extinction of the avoidance behaviour"}]}, {"substance": "α-endorphin", "values": [{"measurement": "affinity to the opiate receptor", "setting": "[2]", "value": "affinity to the opiate receptor"}, {"measurement": "extinction of the (pole-jumping) avoidance behaviour", "setting": "[1]", "value": "inhibit the extinction of the avoidance behaviour; also recorded: delayed the extinction of the avoidance behaviour"}]}, {"substance": "β-endorphin (YGGFMTSEKSQTPLVTLFKNAIIKNAYKKGE; Beta-endorphin; UniProt P01189 237-267, looked up)", "values": [{"measurement": "counteraction by morphine antagonists (naloxon, naltrexon) of the inhibition of extinction", "setting": "[1]", "value": "cannot be counteracted by known morphine antagonists"}, {"measurement": "extinction of the (pole-jumping) avoidance behaviour", "setting": "[1]", "value": "inhibits the extinction"}, {"measurement": "analgetic effect", "setting": "[3]", "value": "analgetic effect"}]}, {"substance": "Met-enkephalin", "values": [{"measurement": "affinity to the opiate receptor", "setting": "[2]", "value": "affinity to the opiate receptor"}, {"measurement": "extinction of the (pole-jumping) avoidance behaviour", "setting": "[1]", "value": "inhibit the extinction of the avoidance behaviour"}]}, {"substance": "Leu-enkephaline", "values": [{"measurement": "affinity to the opiate receptor", "setting": "[2]", "value": "affinity to the opiate receptor"}]}, {"substance": "D-Ala^2 -Met-enkephalin", "values": [{"measurement": "affinity to the opiate receptor", "setting": "[2]", "value": "affinity to the opiate receptor"}]}]}
